Data: patent US8507544B2, “Bi-aryl amide compounds as CRTh2 receptor modulators” (Astrazeneca AB, priority 2007, dated 2013)
Where a name gives a salt, the structure may show the parent alone.

Tests used:
[1] = target: T1, rhCRTh2 (Homo sapiens, UniProt Q9Y5Y4); assay: Ligand binding assay ([3H]PGD2, SPA, HEK cell membranes); settings: [3H]PGD2 binding to HEK cell membranes containing CRTh2, RT 2 hours
T1 construct: expressed in transfected cells; host or cells: HEK cells (membrane preparation)
T1 sequence (Q9Y5Y4 1-395): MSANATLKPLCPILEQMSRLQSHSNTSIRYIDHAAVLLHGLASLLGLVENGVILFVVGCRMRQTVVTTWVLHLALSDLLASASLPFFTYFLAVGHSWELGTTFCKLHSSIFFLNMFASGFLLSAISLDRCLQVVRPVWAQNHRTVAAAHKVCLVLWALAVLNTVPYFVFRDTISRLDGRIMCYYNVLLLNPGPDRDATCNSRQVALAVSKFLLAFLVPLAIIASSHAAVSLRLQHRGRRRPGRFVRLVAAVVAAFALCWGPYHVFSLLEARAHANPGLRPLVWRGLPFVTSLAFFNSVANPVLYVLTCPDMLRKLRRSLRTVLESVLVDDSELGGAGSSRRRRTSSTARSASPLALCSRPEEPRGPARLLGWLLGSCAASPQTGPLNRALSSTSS
Method: HEK cells expressing rhCRTh2/Gα16 were routinely maintained in DMEM containing 10% Foetal Bovine Serum (HyClone), 1 mg/ml geneticin, 2 mM L-glutamine and 1% non-essential amino acids. For the preparation of membranes, the adherent transfected HEKcells were grown to confluence in two layer tissue culture factories (Fisher, catalogue number TKT-170-[MUT]). Maximal levels of receptor expression were induced by addition of 500 mM sodium butyrate for the last 18 hours of culture. The adherent cells were washed once with phosphate buffered saline (PBS, 50 ml per cell factory) and detached by the addition of 50 ml per cell factory of ice-cold membrane homogenisation buffer [20 mM HEPES (pH 7.4), 01. mM dithiothreitol, 1 mM EDTA, 0.1 mM phenyl methyl sulphonyl fluoride and 100 μg/ml bacitracin]. […] The final pellet was re-suspended in 4 ml of membrane homogenisation buffer per cell factory used and the protein content determined. […] (The optimum coating concentrations were determined for each batch of membranes) The beads were pelleted by centrifugation (800×g for 7 minutes at 4° C.), washed once with assay buffer (50 mM HEPES pH 7.4 containing 5 mM magnesium chloride) and finally re-suspended in assay buffer at a bead concentration of 10 mg/ml. […] The assay plate was incubated at RT for 2 hours and counted on a Wallac Microbeta liquid scintillation counter (1 minute per well).

[2] = tested on: human hepatocytes; assay: Determination of metabolic intrinsic clearance (CLint) using human hepatocytes; type: in vitro ADME; settings: 1 μM substrate, 37° C., n=3
Method: Compound stocks were prepared in dimethyl sulfoxide at 100-fold incubation concentration (100 μM). 10 μl of this 100 μM stock was added to a vial containing 490 μl of hepatocyte suspension buffer (without serum). A vial containing either human hepatocytes at a concentration of 2 million viable cells/ml was pre-incubated for 5 min in a shaking (80 oscillations/min) water bath at 37° C. along with the vial containing the drug/buffer mix.
Reactions were initiated by adding 500 μl of hepatocyte suspension to the 500 μl of drug/buffer mix (giving a final substrate concentration of 1 μM at 1% v/v dimethyl sulfoxide). Aliquots (40 μl) were removed at 5, 15, 30, 45, 60, 75 90 & 120 min and reactions were quenched in 80 μl of ice-cold methanol. Samples were subsequently frozen for 1 h at −20° C. and then centrifuged at 2000 g for 20 min at 4° C. The supernatants were removed and analysed by MS/MS and Clint was estimated from the slope of a natural Log of MS/MS response versus time plot. Using physiological scaling factors to account for hepatocellularity and liver weight in the human (Ito and Houston, 2004) hepatic blood clearance was predicted (Clh) using the method outlined by Riley et al., 2005. Typical acid drugs showing an intrinsic clearance value in this assay of <2 μl/min/e^6 cells show robust half lives in man consistent with a once-daily dose intervals. […]

[3] = Water uptake by GVS (gravimetric vapour sorption); type: physicochemical; settings: between RH of 0% -80%, as measured by GVS
Method: • XRPD data were collected using either a PANalytical CubiX PRO machine or a Philips X-Pert MPD machine. • XRPD—PANalytical CubiX PRO • Data was collected with a PANalytical CubiX PRO machine in θ-θ configuration over the scan range 2° to 40° 2θ with 100-second exposure per 0.02° increment. The X-rays were generated by a copper long-fine focus tube operated at 45 kV and 40 mA. The wavelength of the copper X-rays was 1.5418 Å. The data was collected on zero background holders on which ˜2 mg of the compound was placed. The holder was made from a single crystal of silicon, which had been cut along a non-diffracting plane and then polished on an optically flat finish. […] The X-rays incident upon this surface were negated by Bragg extinction. • DSC thermograms were measured using a TA Q1000 Differential Scanning Calorimeter, with aluminium pans and pierced lids. […] The procedure was carried out under a flow of nitrogen gas (50 ml/min) and the temperature studied from 25 to 300° C. at a constant rate of temperature increase of 10° C. per minute. • GVS profiles were measured using a Dynamic Vapour Sorption DVS-1 instrument. The solid sample ca. 1-5 mg was placed into a glass vessel and the weight of the sample was recorded during a dual cycle step method (40 to 90 to 0 to 90 to 0% relative humidity (RH), in steps of 10% RH).

Q: What does the source list for C[C@H](Oc1ccc(F)cc1-c1ccc(C(=O)N2CCCC2(C)C)c(Cl)c1)C(=O)O [Example 1, (2S)-2-({3′-chloro-4′-[(2,2-dimethylpyrrolidin-1-yl)carbonyl]-5-fluorobiphenyl-2-yl}oxy)propanoic acid]?
A: pIC50 [1]: 8.4; Clint [2]: < 1 μl/min/e^6

Q: For C[C@H](Oc1ccc(F)cc1-c1ccc(C(=O)N2CCCC2(C)C)c(Cl)c1)C(=O)O [Example 2, (2S)-2-({3′-chloro-4′-[(2,2-dimethylpyrrolidin-1-yl)carbonyl]-5-fluorobiphenyl-2-yl}oxy)propanoic acid 2-methylpropan-2-amine salt], which water uptake ([3]; listed as example 2 polymorph A) is on record?
A: Its water uptake is 0.6%.

Q: Which water uptake ([3]; listed as example 4 polymorph A) does the source give for C[C@H](Oc1ccc(F)cc1-c1ccc(C(=O)N2CCCC2(C)C)c(Cl)c1)C(=O)O [Example 4, (2S)-2-({3′-chloro-4′-[(2,2-dimethylpyrrolidin-1-yl)carbonyl]-5-fluorobiphenyl-2-yl}oxy)propanoic acid crystaline free acid] here?
A: Its water uptake is 0.7%.
